The subject of the test is cerebellum. As to the kind of experiment: Transcriptional profiling on Affymetrix GeneChips, single dose, naïve mice: cerebellum. The class given is in vivo, C57BL/6 mice. The note with it: for Number of differentially expressed genes identified: Cerebellum: Naïve, Single Dose. The procedure: In vivo, DMF is rapidly metabolized to monomethyl fumarate (MMF).
Animals were exposed to CO2 and whole blood collected via cardiac puncture. Two 100 μl aliquots of whole blood were collected in 1.5 mL microcentrifuge tubes and snap frozen in liquid nitrogen. Peripheral (liver, spleen, kidney and jejunum) and CNS brain (cerebellum, hippocampus, striatum and cortex) tissues were harvested and snap frozen in liquid nitrogen, with special care taken to collect tissues of similar size and from the same location. All samples were stored at −80° C. until RNA extraction was conducted.
For RNA preparation, frozen tissues were placed in 2 mL RNAse-free 96-well blocks with 1.5 mL QIAzol Lysis Reagent (QIAgen) and a 3.2 mm stainless steel bead (BioSpec Products, Bartlesville, Okla.). Tissues were disrupted for four cycles of 45 seconds in a Mini-Beadbeater (Biospec Products). RNA was extracted in chloroform and the aqueous phase was mixed with an equal volume of 70% ethanol. Extracted RNA was applied to RNeasy 96 plates and purified by the spin method according to the manufacturer's protocol (RNeasy 96 Universal Tissue Protocol, QIAgen, Hilden Germany).
Automated sample amplifications and biotin labelings were carried out using the NuGEN Ovation RNA Amplification system V2 (Cat #3100), Ovation WB reagent (Cat #1300) and Encore Biotin module (Cat #4200) (NuGEN Technologies, Inc, San Carlos, Calif.) according to manufacturer's recommendations using an Arrayplex automated liquid handler (Beckman Coulter, Indianapolis, Ind.). Two micrograms of biotin labeled sscDNA probe were hybridized to Affymetrix GeneChip Affymetrix HT_MG-430_PM plate arrays with modified conditions as described in Allaire et al. Washing and staining of the hybridized arrays were completed as described in the GeneChip Expression analysis technical manual for HT plate arrays using the Genechip® Array Station (Affymetrix, Santa Clara, Calif.) with modifications as described in Allaire et al. The processed GeneChip® plate arrays were scanned using GeneTitan scanner (Affymetrix, Santa Clara, Calif.).
Affymetrix scans were subject to quality control (QC) measures. These tests included a visual inspection of the distribution of raw signal intensities and an assessment of RNA degradation, relative log expression (RLE), and normalized unsealed standard error (NUSE). All sample scans that passed these QC metrics were included in the analysis.
All CEL files were subjected to GC-content-based Robust Multi-array Average (GCRMA) normalization (version 2.20.0) (Irizarry R A, et al. Nucleic Acids Res 2003; 31:e15; Li C, et al. Genome Biol 2001; 2:[…]0032). Expression levels were log (base 2) transformed.
All calculations and analyses were carried out using R (version 2.11.1) and Bioconductor computational tools (Gentleman R. Springer Science+Business Media 2005).

Where [1] appears, read: 100 mpk, vs Vehicle, 2 h after last dosing.
Setting [2] is: 100 mpk, vs Vehicle, 7 h after last dosing.
Where [3] appears, read: 100 mpk, vs Vehicle, 12 h after last dosing.
The mark [4] stands for this setting: cerebellum, 100MMF-vs-Veh, 12 h.

The structures appear in SMILES notation. Structures can show the parent of a compound that is named as a salt.

This is an account of results in patent US20160115540A1, “PRODRUGS AND DRUGS” (Biogen MA Inc., priority 2013, published 2016).

Turning to `COC(=O)/C=C/C(=O)OC` [DMF, dimethyl fumarate], the “Number of differentially expressed genes identified: Cerebellum” value (“Number of differentially” below) runs as follows: (100 mpk DMF-vs-100 mpk MMF, 2 h after last dosing) 0; (100 mpk DMF-vs-100 mpk MMF, 7 h after last dosing) 0; (100 mpk DMF-vs-100 mpk MMF, 12 h after last dosing) 0; under setting [1], 0; under setting [2], 0; under setting [3], 0. Also, the differentially expressed genes entry is listed as “None” (cerebellum, 100DMF-vs-100MMF, 2 h); “None” (cerebellum, 100DMF-vs-100MMF, 7 h); “None” (cerebellum, 100DMF-vs-100MMF, 12 h); “None” (cerebellum, 100DMF-vs-Veh, 2 h); “None” (cerebellum, 100DMF-vs-Veh, 7 h); “None” (cerebellum, 100DMF-vs-Veh, 12 h).

Take `COC(=O)/C=C/C(=O)O` [MMF, monomethyl fumarate]: the “Number of differentially” value under setting [1] worked out at 2. The “Number of differentially” value under setting [2] is given as 0. Besides, the “Number of differentially” value under setting [3] stood at 3. Besides, where the note is “cerebellum, 100MMF-vs-Veh, 2 h”, the “FC Csnk2a1 (1419034_PM_at)” value is −1.65 and the “FC Trak2 (1429607_PM_at)” value was −1.55. Under setting [4], the “FC Hif3a (1425428_PM_at)” value is on record as 1.58, the “FC Pnpla7 (1451361_PM_a_at)” value came to 1.52 and the “FC Vnn1 (1447845_PM_s_at)” value amounted to 1.83.
